Values quoted from earlier work as cited in patent publication US5135753A, “Method and therapeutic system for smoking cessation” (Pharmetrix Corporation, priority 1991, dated 1992).
Blank lines part the entries; values can stand above or below the compound they belong to.

Tests used:
skin = details: average penetration rate through the skin; very approximate figures
[1] = Russell
[2] = system: smoking withdrawal symptoms; details: low consistent blood levels of nicotine; craving may not be among the relieved symptoms
[3] = system: nicotinic cholinergic receptors in the CNS and at autonomic ganglia; details: in 10 minutes

SMILES: Clc1cccc(Cl)c1N=C1NCCN1 [clonidine]
skin flux (skin): 0.5 μg/cm^2.h

skin flux (skin): 0.01-0.03 μg/cm^2.h
SMILES: C[C@]12CC[C@@H]3c4ccc(O)cc4CC[C@H]3[C@@H]1CC[C@@H]2O [estradiol]

SMILES: CN1CCCC1c1cccnc1 (stereo not shown) [nicotine]
permeability at later times (human cadaver skin; at later times, "and more"): ≥ 0.4 mg/cm^2.h
permeability during the first day of patch use (human cadaver skin; first day of patch use): ~0.1 mg/cm^2.h
optimal steady-state blood level for nicotine replacement [1]: 10 to 15 ng/mL
lethal unit dose (average adult): about 60 mg
symptoms of nicotine withdrawal [2]: relieve some of the symptoms of nicotine withdrawal
skin flux (skin): 100-300 μg/cm^2.h
rise in nicotine blood level required to obtain postsynaptic effects [3]: at least 10 ng/mL

SMILES: O=[N+]([O-])OCC(CO[N+](=O)[O-])O[N+](=O)[O-] [nitroglycerin]
skin flux (skin): 10-25 μg/cm^2.h
